Measurements reported in paper PMC7531004, “Discovery of gramicidin A analogues with altered activities by multidimensional screening of a one-bead-one-compound library” (Nature Communications, 2020).
Where a SMILES comes first, the peptide text is derived from it. [ ]: non-standard residue; d: D form. The star is where a group is joined. NHCH2CH2OH = OCCN*; For = O=C*

How the values were obtained:
[1] = tested on: P388 mouse leukemia cells; conditions: 92 h
Method in brief: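 P388 cells at 1 × 10^4 cells/mL (final) were exposed to library peptides (stocks diluted 250-fold in RPMI1640/10% FBS) for 92 h at 37 °C, 5% CO2. Viable cells were counted by WST-1/1-methoxy PMS (4 h), absorbance 415 nm, and expressed as cell viability (%).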

[2] = tested on: Streptococcus pyogenes SSI-9; test: Antibacterial activity assay of bead-derived peptides (three concentrations); type: cell-based; set-up: key: +++: inhibition by the 640-fold diluted peptide solution; ++: inhibition by the 160-fold diluted solution; +: inhibition by the 40-fold diluted solution; -: no inhibition; conditions: S. pyogenes, bead-derived peptide solution, three concentrations
Method in brief: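 Undiluted, 4-fold and 16-fold DMSO-diluted peptide stocks; S. pyogenes SSI-9, 2 × 10^5 CFU, cation-adjusted MHB (50 mg/L Ca2+, 25 mg/L Mg2+) + 5% laked horse blood; 37 °C, 18 h; readout = cell pellet visible or not.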

[3] = H+/Na+ transport assay of bead-derived peptides (one-point); type: biochemical; set-up: key: relative activity; mean of two control wells = 1.00; conditions: bead-derived peptide solution, EYPC/EYPG LUVs;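 also: relative to parent gramicidin A activity set to 1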
Method in brief: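 Values are normalized fluorescence, with Triton X-100 defining 100% and untreated LUVs 0%, and the two control wells averaging 1.00. Vesicles carried 1.0 mM pyranine and included egg yolk phosphatidylglycerol. Peptides were incubated with them 30 min at room temperature.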

Compound	cell viability/% [1] [%]	antibacterial activity [2]	H+/Na+ transport activity normalized against the value of 1 (1.00) [3]
CC(C)C[C@@H](NC(=O)[C@H](Cc1c[nH]c2ccccc12)NC(=O)[C@@H](CC(C)C)NC(=O)[C@H](Cc1c[nH]c2ccccc12)NC(=O)[C@@H](CC(C)C)NC(=O)[C@H](Cc1c[nH]c2ccccc12)NC(=O)[C@@H](CC(C)C)NC(=O)[C@@H](NC(=O)[C@H](NC(=O)[C@H](C)NC(=O)[C@H](NC(=O)[C@H](C)NC(=O)CNC(=O)[C@@H](NC=O)C(C)C)C(C)C)C(C)C)C(C)C)C(=O)N[C@@H](Cc1c[nH]c2ccccc12)C(=O)NCCO [compound 3308] (For-VGA[dV]A[dV]V[dL]W[dL]W[dL]W[dL]W-NHCH2CH2OH)	0.1	++	1.15
CNC(=O)C[C@@H](NC(=O)[C@@H](NC(=O)[C@H](NC(=O)[C@H](C)NC(=O)[C@@H](CC(C)C)NC(=O)[C@H](C)NC(=O)CNC(=O)[C@@H](NC=O)C(C)C)C(C)C)C(C)C)C(=O)N[C@@H](Cc1c[nH]c2ccccc12)C(=O)N[C@H](CC(C)C)C(=O)N[C@@H](Cc1c[nH]c2ccccc12)C(=O)N[C@@H](C(=O)N[C@@H](Cc1c[nH]c2ccccc12)C(=O)N[C@H](CC(C)C)C(=O)N[C@@H](Cc1c[nH]c2ccccc12)C(=O)NCCO)C(C)C [compound 2881] (For-VGA[dL]A[dV]V[dD](NHMe)W[dL]W[dV]W[dL]W-NHCH2CH2OH)	100.0	-	1.16
CC(C)C[C@@H](NC(=O)[C@H](C)NC(=O)CNC(=O)[C@@H](NC=O)C(C)C)C(=O)N[C@@H](C)C(=O)N[C@@H](C(=O)N[C@H](C(=O)N[C@@H](C(=O)N[C@@H](Cc1c[nH]c2ccccc12)C(=O)N[C@@H](C(=O)N[C@@H](Cc1c[nH]c2ccccc12)C(=O)N[C@H](CC(C)C)C(=O)N[C@@H](Cc1c[nH]c2ccccc12)C(=O)N[C@@H](C(=O)N[C@@H](Cc1c[nH]c2ccccc12)C(=O)NCCO)C(C)C)C(C)C)C(C)C)C(C)C)[C@H](C)O [compound 10415] (For-VGA[dL]A[dT]V[dV]W[dV]W[dL]W[dV]W-NHCH2CH2OH)	100.0	-	1.02
CC(C)C[C@@H](NC(=O)[C@H](C)NC(=O)[C@H](NC(=O)[C@H](C)NC(=O)CNC(=O)[C@@H](NC=O)C(C)C)[C@H](C)O)C(=O)N[C@H](C(=O)N[C@H](CC(C)C)C(=O)N[C@@H](Cc1c[nH]c2ccccc12)C(=O)N[C@@H](C(=O)N[C@@H](Cc1c[nH]c2ccccc12)C(=O)N[C@H](CC(C)C)C(=O)N[C@@H](Cc1c[nH]c2ccccc12)C(=O)N[C@@H](C(=O)N[C@@H](Cc1c[nH]c2ccccc12)C(=O)NCCO)C(C)C)[C@H](C)O)C(C)C [compound 367] (For-VGA[dT]A[dL]V[dL]W[dT]W[dL]W[dV]W-NHCH2CH2OH)	100.0	-	1.24
CC(C)C[C@@H](NC(=O)[C@H](C)NC(=O)CNC(=O)[C@@H](NC=O)C(C)C)C(=O)N[C@@H](C)C(=O)N[C@H](CC(C)C)C(=O)N[C@H](C(=O)N[C@@H](C(=O)N[C@@H](Cc1c[nH]c2ccccc12)C(=O)N[C@@H](C(=O)N[C@@H](Cc1c[nH]c2ccccc12)C(=O)N[C@H](CC(C)C)C(=O)N[C@@H](Cc1c[nH]c2ccccc12)C(=O)N[C@H](CC(C)C)C(=O)N[C@@H](Cc1c[nH]c2ccccc12)C(=O)NCCO)C(C)C)[C@H](C)O)C(C)C [compound 2158] (For-VGA[dL]A[dL]V[dT]W[dV]W[dL]W[dL]W-NHCH2CH2OH)	100.0	-	1.18
CC(C)C[C@@H](NC(=O)[C@@H](NC(=O)[C@H](NC(=O)[C@H](C)NC(=O)[C@H](NC(=O)[C@H](C)NC(=O)CNC(=O)[C@@H](NC=O)C(C)C)[C@H](C)O)C(C)C)C(C)C)C(=O)N[C@@H](Cc1c[nH]c2ccccc12)C(=O)N[C@@H](C(=O)N[C@@H](Cc1c[nH]c2ccccc12)C(=O)N[C@@H](C(=O)N[C@@H](Cc1c[nH]c2ccccc12)C(=O)N[C@@H](C(=O)N[C@@H](Cc1c[nH]c2ccccc12)C(=O)NCCO)C(C)C)C(C)C)C(C)C [compound 3631] (For-VGA[dT]A[dV]V[dL]W[dV]W[dV]W[dV]W-NHCH2CH2OH)	100.0	-	1.02
CNC(=O)C[C@@H](NC(=O)[C@@H](NC(=O)[C@H](NC(=O)[C@H](C)NC(=O)[C@H](NC(=O)[C@H](C)NC(=O)CNC(=O)[C@@H](NC=O)C(C)C)C(C)C)C(C)C)C(C)C)C(=O)N[C@@H](Cc1c[nH]c2ccccc12)C(=O)N[C@H](CC(C)C)C(=O)N[C@@H](Cc1c[nH]c2ccccc12)C(=O)N[C@H](CC(C)C)C(=O)N[C@@H](Cc1c[nH]c2ccccc12)C(=O)N[C@@H](C(=O)N[C@@H](Cc1c[nH]c2ccccc12)C(=O)NCCO)C(C)C [compound 6510] (For-VGA[dV]A[dV]V[dD](NHMe)W[dL]W[dL]W[dV]W-NHCH2CH2OH)	100.0	-	1.36
CNC(=O)C[C@@H](NC(=O)[C@H](Cc1c[nH]c2ccccc12)NC(=O)[C@@H](CC(C)C)NC(=O)[C@@H](NC(=O)[C@@H](CC(C)C)NC(=O)[C@H](C)NC(=O)[C@H](NC(=O)[C@H](C)NC(=O)CNC(=O)[C@@H](NC=O)C(C)C)C(C)C)C(C)C)C(=O)N[C@@H](Cc1c[nH]c2ccccc12)C(=O)N[C@@H](C(=O)N[C@@H](Cc1c[nH]c2ccccc12)C(=O)N[C@@H](C(=O)N[C@@H](Cc1c[nH]c2ccccc12)C(=O)NCCO)C(C)C)C(C)C [compound 3144] (For-VGA[dV]A[dL]V[dL]W[dD](NHMe)W[dV]W[dV]W-NHCH2CH2OH)	100.0	-	1.01
CC(C)C[C@@H](NC(=O)[C@@H](NC(=O)[C@H](NC(=O)[C@H](C)NC(=O)[C@H](NC(=O)[C@H](C)NC(=O)CNC(=O)[C@@H](NC=O)C(C)C)C(C)C)C(C)C)C(C)C)C(=O)N[C@@H](Cc1c[nH]c2ccccc12)C(=O)N[C@@H](C(=O)N[C@@H](Cc1c[nH]c2ccccc12)C(=O)N[C@@H](C(=O)N[C@@H](Cc1c[nH]c2ccccc12)C(=O)N[C@@H](C(=O)N[C@@H](Cc1c[nH]c2ccccc12)C(=O)NCCO)[C@H](C)O)C(C)C)C(C)C [compound 6781] (For-VGA[dV]A[dV]V[dL]W[dV]W[dV]W[dT]W-NHCH2CH2OH)	100.0	+	1.04
CC(C)C[C@@H](NC(=O)[C@H](C)NC(=O)CNC(=O)[C@@H](NC=O)C(C)C)C(=O)N[C@@H](C)C(=O)N[C@H](CC(C)C)C(=O)N[C@H](C(=O)N[C@@H](C(=O)N[C@@H](Cc1c[nH]c2ccccc12)C(=O)N[C@@H](C(=O)N[C@@H](Cc1c[nH]c2ccccc12)C(=O)N[C@@H](C(=O)N[C@@H](Cc1c[nH]c2ccccc12)C(=O)N[C@@H](C(=O)N[C@@H](Cc1c[nH]c2ccccc12)C(=O)NCCO)C(C)C)C(C)C)C(C)C)C(C)C)C(C)C [compound 13128] (For-VGA[dL]A[dL]V[dV]W[dV]W[dV]W[dV]W-NHCH2CH2OH)	100.0	+	1.24
CC(C)C[C@@H](NC(=O)[C@H](C)NC(=O)CNC(=O)[C@@H](NC=O)C(C)C)C(=O)N[C@@H](C)C(=O)N[C@H](CC(C)C)C(=O)N[C@H](C(=O)N[C@@H](C(=O)N[C@@H](Cc1c[nH]c2ccccc12)C(=O)N[C@@H](C(=O)N[C@@H](Cc1c[nH]c2ccccc12)C(=O)N[C@H](CC(C)C)C(=O)N[C@@H](Cc1c[nH]c2ccccc12)C(=O)N[C@H](CC(C)C)C(=O)N[C@@H](Cc1c[nH]c2ccccc12)C(=O)NCCO)C(C)C)C(C)C)C(C)C [compound 7198] (For-VGA[dL]A[dL]V[dV]W[dV]W[dL]W[dL]W-NHCH2CH2OH)	16.1	+	1.09
CNC(=O)C[C@@H](NC(=O)[C@H](Cc1c[nH]c2ccccc12)NC(=O)[C@@H](CC(C)C)NC(=O)[C@H](Cc1c[nH]c2ccccc12)NC(=O)[C@H](NC(=O)[C@H](Cc1c[nH]c2ccccc12)NC(=O)[C@@H](CC(C)C)NC(=O)[C@@H](NC(=O)[C@H](NC(=O)[C@H](C)NC(=O)[C@H](NC(=O)[C@H](C)NC(=O)CNC(=O)[C@@H](NC=O)C(C)C)C(C)C)C(C)C)C(C)C)C(C)C)C(=O)N[C@@H](Cc1c[nH]c2ccccc12)C(=O)NCCO [compound 5538] (For-VGA[dV]A[dV]V[dL]W[dV]W[dL]W[dD](NHMe)W-NHCH2CH2OH)	100.0	-	1.06
CNC(=O)C[C@@H](NC(=O)[C@@H](NC(=O)[C@@H](CC(C)C)NC(=O)[C@H](C)NC(=O)[C@H](NC(=O)[C@H](C)NC(=O)CNC(=O)[C@@H](NC=O)C(C)C)C(C)C)C(C)C)C(=O)N[C@@H](Cc1c[nH]c2ccccc12)C(=O)N[C@@H](C(=O)N[C@@H](Cc1c[nH]c2ccccc12)C(=O)N[C@@H](C(=O)N[C@@H](Cc1c[nH]c2ccccc12)C(=O)N[C@@H](C(=O)N[C@@H](Cc1c[nH]c2ccccc12)C(=O)NCCO)C(C)C)C(C)C)C(C)C [compound 8662] (For-VGA[dV]A[dL]V[dD](NHMe)W[dV]W[dV]W[dV]W-NHCH2CH2OH)	61.0	-	1.08
